In ChEMBL document CHEMBL3137667, “[Drug-induced liver injury; fourteenth updated edition of the bibliographic database of liver injuries and related drugs]” (Gastroenterol Clin Biol, 2004):

Legend:
[1] = Highest frequency of moderate liver toxicity observed during clinical trials, expressed as a percentage. [column '% BIOL' in source]; conditions: human
[2] = Highest frequency of acute liver toxicity observed during clinical trials, expressed as a percentage. [column '% AIGUE' in source]; conditions: human
[3] = Times to onset, minimal and maximal, observed in the indexed observations. [column 'DELAI' in source]; conditions: human
[4] = human, serum
[5] = human, serum; remark: listed apart in the source
[6] = human
[7] = human; remark: listed apart in the source
[8] = human; remark: listed apart in the source
[9] = human, serum, 4383 h
[10] = human; remark: listed apart in the source
[11] = human; remark: listed apart in the source
[12] = human; remark: listed apart in the source
[13] = human; remark: listed apart in the source
[14] = human; remark: listed apart in the source
[15] = human; remark: listed apart in the source
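For Hepatotoxicity (association with vascular disease) in this document: count of indexed literature references reporting vascular liver injury in humans, e.g. peliosis hepatitis, hepatic veno-occlusive disease or Budd-Chiari syndrome.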
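For Hepatotoxicity (benign tumour) in this document: value is a count of indexed literature references citing a benign tumour confirmed by histopathology.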
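For Hepatotoxicity (choleostasis) in this document: human cholestatic liver injury, shown by histopathology or by peak ALT or AST elevation over alkaline phosphatase ratio below 2, value counts indexed literature reports.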
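For Hepatotoxicity (chronic liver disease) in this document: chronic liver injury confirmed by histopathology or persistently raised serum aminotransferase activity beyond 6 months, value given as the count of indexed literature references.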
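For Hepatotoxicity (cirrhosis) in this document: value is a count of indexed literature references reporting cirrhosis confirmed by histopathology.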
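For Hepatotoxicity (cytolytic) in this document: human cytolytic liver injury, shown by histopathology or by a ratio above 5 of peak ALT or AST elevation to alkaline phosphatase elevation, value counts indexed references.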
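For Hepatotoxicity (granulomatous hepatitis) in this document: value is a count of indexed literature references reporting granulomatous liver disease confirmed by histopathology.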
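For Hepatotoxicity (malignant tumour) in this document: malignant tumour confirmed by histopathology, value gives the count of indexed literature references reporting it.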
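For Hepatotoxicity (severe hepatitis) in this document: human clinical data: severe hepatitis, meaning potentially life-threatening liver failure or clinically observed cases, the value counts how many indexed literature references report it.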
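For Hepatotoxicity (steatosis) in this document: steatosis confirmed by histopathology, value is the count of indexed references.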

Row | Compound | Hepatotoxicity (moderate) [1] [%] | Hepatotoxicity (acute) [2] [%] | Hepatotoxicity (time to onset) [3] | Hepatotoxicity (moderate) [4] | Hepatotoxicity (acute) [5] | Hepatotoxicity (cytolytic) [6] | Hepatotoxicity (choleostasis) [7] | Hepatotoxicity (severe hepatitis) [8] | Hepatotoxicity (chronic liver disease) [9] | Hepatotoxicity (cirrhosis) [10] | Hepatotoxicity (granulomatous hepatitis) [11] | Hepatotoxicity (association with vascular disease) [12] | Hepatotoxicity (steatosis) [13] | Hepatotoxicity (malignant tumour) [14] | Hepatotoxicity (benign tumour) [15] | other results
1 | CCC(=O)[C@@]1(C)CC[C@H]2[C@@H]3CCC4=CC(=O)CCC4=C3CC[C@@]21C [PROMEGESTONE] | 0 | 0 | 3 years | 0 | 0 | 0 | 0 | 0 | 0 | 0 | 0 | 0 | 0 | 0 | 1 | –
2 | CC(C)c1cccc(C(C)C)c1O [PROPOFOL] | – | – | 1 day - 4 weeks | 0 | 2 | – | – | – | 0 | 0 | – | 0 | 0 | 0 | 0 | Hepatotoxicity (moderate) ([1]; Liver): 0%; Hepatotoxicity (acute) ([2]; Liver): 0%; Hepatotoxicity (cytolytic) ([6]; Liver): 1; Hepatotoxicity (choleostasis) ([7]; Liver): 1; Hepatotoxicity (severe hepatitis) ([8]; Liver): 0; Hepatotoxicity (granulomatous hepatitis) ([11]; Liver): 0
3 | Cc1c(C(C)C)c(=O)n(-c2ccccc2)n1C [PROPYPHENAZONE] | 0 | 0 | 2 days - 2 years | 0 | 3 | 1 | 0 | 0 | 0 | 0 | 2 | 0 | 0 | 0 | 0 | –
4 | Fc1ccccc1C1=NCC(=S)N(CC(F)(F)F)c2ccc(Cl)cc21 [QUAZEPAM] | 0 | 0 | 4 weeks | 1 | 0 | 0 | 0 | 0 | 0 | 0 | 0 | 0 | 0 | 0 | 0 | –
5 | OCCOCCN1CCN(C2=Nc3ccccc3Sc3ccccc32)CC1 [QUETIAPINE] | – | – | 1 week - 3 weeks | 3 | 1 | – | – | – | 0 | 0 | – | 0 | 0 | 0 | 0 | Hepatotoxicity (moderate) ([1]; Liver): 14.8%; Hepatotoxicity (acute) ([2]; Liver): 1.9%; Hepatotoxicity (cytolytic) ([6]; Liver): 1; Hepatotoxicity (choleostasis) ([7]; Liver): 0; Hepatotoxicity (severe hepatitis) ([8]; Liver): 0; Hepatotoxicity (granulomatous hepatitis) ([11]; Liver): 0
6 | COCCCOc1ccnc(C[S+]([O-])c2nc3ccccc3[nH]2)c1C (stereo not given) [RABEPRAZOLE] | 0 | 0 | 4 weeks | 0 | 1 | 1 | 0 | 1 | 0 | 0 | 0 | 0 | 0 | 0 | 0 | –
7 | CCN1CCC[C@H]1CNC(=O)c1c(O)c(Cl)cc(Cl)c1OC [RACLOPRIDE] | 2.2 | 0 | 1 week - 2 weeks | 1 | 0 | 0 | 0 | 0 | 0 | 0 | 0 | 0 | 0 | 0 | 0 | –
8 | CC(=O)OCC(=O)NCCCOc1cccc(CN2CCCCC2)c1 [ROXATIDINE ACETATE] | 0.4 | 0.5 | 4 weeks | 2 | 1 | 0 | 0 | 0 | 0 | 0 | 0 | 0 | 0 | 0 | 0 | –
9 | CC[C@H]1OC(=O)[C@H](C)[C@@H](O[C@H]2C[C@@](C)(OC)[C@@H](O)[C@H](C)O2)[C@H](C)[C@@H](O[C@@H]2O[C@H](C)C[C@H](N(C)C)[C@H]2O)[C@](C)(O)C[C@@H](C)/C(=N\OCOCCOC)[C@H](C)[C@@H](O)[C@]1(C)O [ROXITHROMYCIN] | 22.6 | 0 | 4 days - 10 months | 38 | 10 | 7 | 6 | 2 | 0 | 0 | 0 | 0 | 0 | 0 | 0 | –
10 | O=C(Oc1ccccc1C(=O)O)c1ccccc1O [SALSALATE] | 15 | 5 | 1 day - 2 weeks | 1 | 2 | 2 | 0 | 0 | 0 | 0 | 0 | 0 | 0 | 0 | 0 | –
11 | FCOC(C(F)(F)F)C(F)(F)F [SEVOFLURANE] | 40 | 0 | 1 day - 11 days | 4 | 6 | 6 | 0 | 2 | 0 | 0 | 0 | 0 | 0 | 0 | 0 | –
12 | CC(C)NCC(O)c1ccc(NS(C)(=O)=O)cc1 (stereo not given) [SOTALOL] | 0 | 0 | 10 months | 0 | 1 | 1 | 0 | 0 | 1 | 0 | 0 | 0 | 0 | 0 | 0 | –
13 | CN[C@@H]1[C@H](O)[C@H](NC)[C@H]2O[C@@]3(O)C(=O)C[C@@H](C)O[C@H]3O[C@@H]2[C@H]1O [SPECTINOMYCIN] | 0 | 0 | 3 days | 1 | 1 | 0 | 1 | 0 | 0 | 0 | 0 | 0 | 0 | 0 | 0 | –
14 | COc1cc(NS(=O)(=O)c2ccc(N)cc2)nc(OC)n1 [SULFADIMETHOXINE] | 0 | 0 | 1 month - 2 months | 0 | 2 | 1 | 0 | 0 | 0 | 0 | 1 | 0 | 0 | 0 | 0 | –
